Each compound was assayed against T1, cloned human dopamine D3 receptors (Homo sapiens, UniProt P35462) (assay: [N-Methyl-3H]Spiroperidol binding to cloned human dopamine D3 receptors). Settings: not given.
T1 construct: expressed in transfected cells
Excerpt: [N-Methyl-^3H]Spiroperidol Binding to Cloned Human Dopamine D3 Receptors
This assay measures the in vitro activity of compounds on cloned human dopamine (D3) receptors and predicts the direct dopamine-blocking properties of putative neuropsychiatric agents at human dopamine D3 receptors.
The D3 gene was isolated from a human striatal cDNA library (Stratagene). The gene was sequenced and sub-cloned into the expression vector RC/RSV (Invitrogen). CHO (Chinese Hamster Ovary) cells were stably transfected with 10 μg of the D3/RSV plasmid using the DOTAP method from Boehringer Mannheim and 72 clones that were G418 resistant were isolated. Using mRNA and binding displacement data a single high expressing clone was identified. This clone was then grown in large batches for the purpose of developing a 96 well format assay.
The cells are harvested into 250 ml centrifuge tubes with 100 volumes of cold phosphate buffered saline (PBS) and spun down (1200×G for 10 min at 4° C.). The medium is removed and 100 ml PBS are added to each centrifuge tube, cells are resuspened and spun down again. The PBS is removed and the final pellet is homogenized in an appropriate volume of 10% DMSO with a polytron on ice at a medium setting.
For Kj determinations: [^3H]NMSP is made up to a concentration of 2.7 nM in buffer 2b, such that when 150 μl is added to each tube a final concentration of 0.4 nM is attained in the 1 ml assay. Samples of total CPM added are taken for each experiment to calculate the total ligand concentration.
5. S(-)-Eticlopride is obtained from Research Biochemicals International (RBI catalog number E-101). A refrigerated stock (good for up to a month) solution of S(-)-eticlopride is made at a concentration of 30 μM in buffer 2b. One hundred microliters are added to 3 wells for the determination of nonspecific binding (this yields a final concentration of 3 μM in the 1 ml assay).
For most assays, a 100 μM stock solution of the test compound is made up in a suitable solvent (usually <0.1% acetic acid) and serially diluted with buffer 2b, such that when 100 μl of drug is combined with the total 1 ml assay, final concentrations ranging from 10^−5-10^−8 M are attained. Characteristically eight concentrations are studied for each assay; however, higher or lower concentrations may be used, depending on the potency of the drug.
The 96-Well Packard Unifilters GF/B are incubated for >1 h at 25° C. in 0.1% polyethylamine (from 3,b). The cold tissue is added last and mixed on a orbital shaker for a few seconds and is then incubated at 37° C. for 30 min in a shaking water bath. The assay is stopped by rapid filtration through Packard Unifilter plates. The filter membranes are then washed with 15 ml of ice-cold 0.05 M Tris buffer. The filters are then dried (˜15 min under a heat lamp or incubated for 15 min in a 60° C. oven) and a bottom seal is applied. Then 40 μl of Packard Microscint 20 scintillation cocktail is added and a permanent topseal (Type P) is applied and heat sealed. The plates are then shaken on an orbital shaker for 1 h and placed in the Packard Topcount and counted for at least 5 minutes for each point.
Specific binding is defined as the difference between total binding and the binding in the presence of 3 μM S-(-)-eticlopride. Total binding is approximately 10% of the total added ligand. Cheng-Prusoff determination (Kj's) are performed using Prism software using a one-site competition curve analysis where the top and the bottom of the non-linear regression are held constant at 0% and 100% percent inhibition. The percent inhibition at each drug concentration is the mean of duplicate determinations.

T1 sequence (P35462 whole entry): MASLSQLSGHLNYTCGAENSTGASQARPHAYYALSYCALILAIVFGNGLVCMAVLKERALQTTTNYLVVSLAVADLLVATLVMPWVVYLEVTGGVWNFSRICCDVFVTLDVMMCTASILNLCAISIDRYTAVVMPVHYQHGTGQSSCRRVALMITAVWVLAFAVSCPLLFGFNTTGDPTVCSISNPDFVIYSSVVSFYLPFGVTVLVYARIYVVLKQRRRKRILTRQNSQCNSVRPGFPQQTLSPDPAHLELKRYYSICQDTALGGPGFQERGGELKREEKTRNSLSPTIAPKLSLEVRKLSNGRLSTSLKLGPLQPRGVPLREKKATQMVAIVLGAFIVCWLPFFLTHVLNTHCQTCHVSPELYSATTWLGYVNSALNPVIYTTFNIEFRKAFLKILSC

`C=CCN(CC1CC1CN1CCCN(c2csc3cc(F)ccc23)CC1)C(=O)Nc1ccc(OC)cc1` (racemic) [compound 830389] was tested. Which Ki did it give?
Its Ki is 2.97 nM.

Which Ki does the source give for `O=C(Nc1ccc(OC(F)(F)F)cc1)N(Cc1ccccc1)CC1CC1CN1CCCN(c2csc3cc(F)ccc23)CC1` (racemic) [compound 830400] here?
The Ki was 41.3 nM.

`O=C(Nc1ccc(Cl)c(Cl)c1)N(Cc1ccccc1)CC1CC1CN1CCCN(c2csc3cc(F)ccc23)CC1` (racemic) [compound 830401] was tested. Which Ki did it give?
The Ki was 29.7 nM.

How did the Ki turn out when `COc1ccc(NC(=O)NCC2CC2CN2CCCN(c3csc4cc(F)ccc34)CC2)cc1` (racemic) [compound 830408] was run?
Its Ki is 3.43 nM.

Which Ki does the source give for `O=C(NCC1CC1CN1CCCN(c2csc3cc(F)ccc23)CC1)Nc1ccc(Cl)c(Cl)c1` (racemic) [compound 830409] here?
Its Ki is 47.4 nM.

With `CC(C)(C)NC(=O)NCC1CC1CN1CCC(c2noc3ccsc23)CC1` (racemic) [compound 831498] as the compound, how does the Ki read?
The Ki was 43.6 nM.

For `O=C(NCCc1ccccc1)NCC1CC1CN1CCC(c2noc3ccsc23)CC1` (racemic) [compound 831670], which Ki is on record?
The Ki was 159 nM.

Same assay, conditions: Table III; read-out: d3Ki

Which Ki does the source give for `COc1ccc(NC(=O)NCCCCN2CCN(c3csc4cc(C(F)(F)F)ccc34)CC2)cc1` [815994A] here?
The Ki was 5.94 nM.

With `Cc1ccc(NC(=O)NCCCCN2CCN(c3csc4cc(C(F)(F)F)ccc34)CC2)cc1` [815997A] as the compound, how does the Ki read?
The Ki was 4.08 nM.

`CC(=O)c1ccc(NC(=O)NCCCCN2CCN(c3c(Cl)sc4cc(F)ccc34)CC2)cc1` [compound 815158] was tested. Which Ki did it give?
Its Ki is 7.4 nM.

`O=C(NCCCCN1CCN(c2c(Cl)sc3cc(F)ccc23)CC1)Nc1ccc(Oc2ccccc2)cc1` [compound 815159] was tested. Which Ki did it give?
Its Ki is 85.4 nM.

How did the Ki turn out when `O=C(NCCCCN1CCN(c2c(Cl)sc3cc(F)ccc23)CC1)Nc1ccc(-c2ccccc2)cc1` [compound 815160] was run?
Its Ki is 192 nM.

`O=C(NCCCCN1CCN(c2c(Cl)sc3cc(F)ccc23)CC1)Nc1ccc(OCc2ccccc2)cc1` [compound 815161] was tested. Which Ki did it give?
The Ki was 75.9 nM.

`O=C(NCCCCN1CCN(c2c(Cl)sc3cc(F)ccc23)CC1)Nc1ccc(C(F)(F)F)cc1` [compound 815162] was tested. Which Ki did it give?
Its Ki is 38 nM.

Which Ki does the source give for `O=C(NCCCCN1CCN(c2c(Cl)sc3cc(F)ccc23)CC1)Nc1cccc(F)c1` [compound 815163] here?
The Ki was 25.2 nM.

With `O=C(NCCCCN1CCN(c2c(Cl)sc3cc(F)ccc23)CC1)Nc1ccc(F)cc1` [compound 815164] as the compound, how does the Ki read?
The Ki was 31.9 nM.

With `COc1ccc(NC(=O)NCCCCN2CCN(c3c(Cl)sc4cc(F)ccc34)CC2)cc1` [compound 815165] as the compound, how does the Ki read?
Its Ki is 21.4 nM.

How did the Ki turn out when `CCCCOc1ccc(NC(=O)NCCCCN2CCN(c3c(Cl)sc4cc(F)ccc34)CC2)cc1` [compound 815166] was run?
The Ki was 37 nM.

Which Ki does the source give for `CC(C)c1ccc(NC(=O)NCCCCN2CCN(c3c(Cl)sc4cc(F)ccc34)CC2)cc1` [compound 815167] here?
The Ki was 48 nM.

Which Ki does the source give for `O=C(NCCCCN1CCN(c2c(Cl)sc3cc(F)ccc23)CC1)Nc1ccc(I)cc1` [compound 815168] here?
The Ki was 33.4 nM.

How did the Ki turn out when `O=C(NCCCCN1CCN(c2c(Cl)sc3cc(F)ccc23)CC1)Nc1ccccc1Cl` [compound 815169] was run?
The Ki was 11.2 nM.

For `CCCCc1ccc(NC(=O)NCCCCN2CCN(c3c(Cl)sc4cc(F)ccc34)CC2)cc1` [compound 815170], which Ki is on record?
The Ki was 17.7 nM.

For `Cc1ccc(NC(=O)NCCCCN2CCN(c3c(Cl)sc4cc(F)ccc34)CC2)cc1` [compound 815171], which Ki is on record?
Its Ki is 3.8 nM.

For `O=C(NCCCCN1CCN(c2c(Cl)sc3cc(F)ccc23)CC1)Nc1ccc(Cl)cc1` [compound 815172], which Ki is on record?
The Ki was 5.6 nM.

With `O=C(NCCCCN1CCN(c2c(Cl)sc3cc(F)ccc23)CC1)Nc1ccccc1C(F)(F)F` [compound 815173] as the compound, how does the Ki read?
The Ki was 46.5 nM.

`O=C(NCCCCN1CCN(c2c(Cl)sc3cc(F)ccc23)CC1)Nc1ccc(Br)cc1` [compound 815174] was tested. Which Ki did it give?
Its Ki is 6 nM.

How did the Ki turn out when `O=C(NCCCCN1CCN(c2c(Cl)sc3cc(F)ccc23)CC1)Nc1cccc2ccccc12` [compound 815175] was run?
The Ki was 11.8 nM.

`O=C(NCCCCN1CCN(c2c(Cl)sc3cc(F)ccc23)CC1)NCc1ccccc1` [compound 815177] was tested. Which Ki did it give?
Its Ki is 18 nM.

`S=C(NCCCCN1CCC(c2noc3ccsc23)CC1)Nc1ccccc1` [compound 815383] was tested. Which Ki did it give?
The Ki was 190 nM.

`O=C(NCCCCN1CCC(c2noc3ccsc23)CC1)Nc1ccc(Br)cc1` [compound 815386] was tested. Which Ki did it give?
Its Ki is 18 nM.

With `O=C(NCCCCN1CCC(c2noc3ccsc23)CC1)Nc1ccc(-c2ccccc2)cc1` [compound 815387] as the compound, how does the Ki read?
The Ki was 28 nM.

Which Ki does the source give for `O=C(NCCCCN1CCC(c2noc3ccsc23)CC1)NC1CCCCC1` [compound 815389] here?
Its Ki is 30 nM.

`O=C(NCCCCN1CCC(c2noc3ccsc23)CC1)Nc1cccc2ccccc12` [compound 815390] was tested. Which Ki did it give?
Its Ki is 52 nM.

`O=C(NCCCCN1CCC(c2noc3ccsc23)CC1)Nc1ccc(Oc2ccccc2)cc1` [compound 815391] was tested. Which Ki did it give?
Its Ki is 16 nM.

How did the Ki turn out when `O=C(NCCCCN1CCC(c2noc3ccsc23)CC1)NC12CC3CC(CC(C3)C1)C2` [compound 815392] was run?
Its Ki is 24 nM.

How did the Ki turn out when `CCc1cccc(NC(=O)NCCCCN2CCC(c3noc4ccsc34)CC2)c1` [compound 815934] was run?
The Ki was 4.19 nM.

For `O=C(NCCCCN1CCC(c2noc3ccsc23)CC1)Nc1ccc(OC(F)(F)F)cc1` [compound 815935], which Ki is on record?
The Ki was 53.8 nM.

For `O=C(NCCCCN1CCC(c2noc3ccsc23)CC1)Nc1cc(C(F)(F)F)ccc1Cl` [compound 815936], which Ki is on record?
The Ki was 3.91 nM.

With `CC(NC(=O)NCCCCN1CCC(c2noc3ccsc23)CC1)c1ccc(Br)cc1` (stereo not shown) [compound 815937] as the compound, how does the Ki read?
The Ki was 66.3 nM.

For `CCO[Si](CCCNC(=O)NCCCCN1CCC(c2noc3ccsc23)CC1)(OCC)OCC` [compound 815938], which Ki is on record?
The Ki was 153 nM.

`O=C(NCCCCN1CCC(c2noc3ccsc23)CC1)Nc1ccccc1Br` [compound 815939] was tested. Which Ki did it give?
Its Ki is 19.1 nM.

Which Ki does the source give for `CCNC(=O)NCCCCN1CCC(c2noc3ccsc23)CC1` [compound 815940] here?
Its Ki is 140 nM.

`CCOC(=O)c1ccccc1NC(=O)NCCCCN1CCC(c2noc3ccsc23)CC1` [compound 815941] was tested. Which Ki did it give?
Its Ki is 128 nM.

With `CCOC(=O)C(CC(C)C)NC(=O)NCCCCN1CCC(c2noc3ccsc23)CC1` (stereo not shown) [compound 815942] as the compound, how does the Ki read?
The Ki was 41.7 nM.

`CCOC(=O)CCNC(=O)NCCCCN1CCC(c2noc3ccsc23)CC1` [compound 815943] was tested. Which Ki did it give?
The Ki was 198 nM.

How did the Ki turn out when `COC(=O)C(Cc1ccccc1)NC(=O)NCCCCN1CCC(c2noc3ccsc23)CC1` (stereo not shown) [compound 815944] was run?
Its Ki is 297 nM.

Which Ki does the source give for `O=C(NCCCCN1CCC(c2noc3ccsc23)CC1)NCc1cc(=O)oc2cc3c(cc12)OCO3` [compound 815945] here?
Its Ki is 116 nM.

`CCCCCCCCNC(=O)NCCCCN1CCC(c2noc3ccsc23)CC1` [compound 815946] was tested. Which Ki did it give?
Its Ki is 28.3 nM.

Which Ki does the source give for `COc1c(Cl)cccc1NC(=O)NCCCCN1CCC(c2noc3ccsc23)CC1` [compound 815947] here?
The Ki was 26 nM.

With `O=C(NCCCCN1CCC(c2noc3ccsc23)CC1)Nc1ccccc1F` [compound 815948] as the compound, how does the Ki read?
Its Ki is 6.04 nM.

`O=C(NCCCCN1CCC(c2noc3ccsc23)CC1)Nc1ccccc1Cl` [compound 815949] was tested. Which Ki did it give?
Its Ki is 13.6 nM.

For `CC(C)c1ccccc1NC(=O)NCCCCN1CCC(c2noc3ccsc23)CC1` [compound 815952], which Ki is on record?
The Ki was 27 nM.

`C=C(C)c1cccc(C(C)(C)NC(=O)NCCCCN2CCC(c3noc4ccsc34)CC2)c1` [compound 815953] was tested. Which Ki did it give?
The Ki was 67.9 nM.

With `CCOC(=O)c1ccc(NC(=O)NCCCCN2CCC(c3noc4ccsc34)CC2)cc1` [compound 815954] as the compound, how does the Ki read?
Its Ki is 14.9 nM.

Which Ki does the source give for `O=C(NCCCCN1CCN(c2csc3cc(C(F)(F)F)ccc23)CC1)Nc1cccc2ccccc12` [compound 815996] here?
The Ki was 5.85 nM.

`O=C(NCCCCN1CCN(c2csc3cc(C(F)(F)F)ccc23)CC1)NCc1ccccc1` [compound 815998] was tested. Which Ki did it give?
Its Ki is 22.5 nM.

Which Ki does the source give for `COc1ccccc1NC(=O)NCCCCN1CCN(c2csc3cc(C(F)(F)F)ccc23)CC1` [compound 815999] here?
The Ki was 19 nM.

How did the Ki turn out when `O=C(NCCCCN1CCN(c2csc3cc(C(F)(F)F)ccc23)CC1)Nc1ccc(F)cc1` [compound 816004] was run?
Its Ki is 6.11 nM.

`O=C(NCCCCN1CCN(c2csc3cc(C(F)(F)F)ccc23)CC1)Nc1ccc(F)cc1F` [compound 816006] was tested. Which Ki did it give?
The Ki was 7.42 nM.

For `Cc1ccccc1NC(=O)NCCCCN1CCN(c2csc3cc(C(F)(F)F)ccc23)CC1` [compound 816007], which Ki is on record?
The Ki was 17.5 nM.

For `COc1ccc(NC(=O)NCCCCN2CCN(c3csc4cc(C(F)(F)F)ccc34)CC2)c(OC)c1` [compound 816008], which Ki is on record?
Its Ki is 17 nM.

Reference: patent US20030229066A1, “Novel heterocyclic urea derivatives and their use as dopamine D3 receptor ligands” (priority 2001, published 2003)
